Laboratory results as given in EP0379367B1, “Method for the prevention of intrinsically aged skin with retinoids” (ORTHO PHARMACEUTICAL CORPORATION, priority 1989, dated 1990).
Entries after “also recorded” stand apart in the source; their conditions may differ.

What was measured:
[1] = test system: Female Albino hairless mice (Skh-hairless-1); details: mouse, in vivo
Description: (§1) Lifetime Application of all-trans-Retinoic Acid to Albino Hairless Mice.
(§2) Female Albino hairless mice (Skh-hairless-1), age 8-11 weeks, were treated topically, three times a week, for the remainder of their life span as follows:
(§3) The mice were examined monthly for skin changes and possible weight loss that might indicate a toxic effect.
(§4) Toward the end of the study, mice were photographed to show the condition of the skin. A few mice were sacrificed at about 70, 80 and 90 weeks, with dorsal skin taken for histochemical evaluation. The remainder were allowed to live out their life span which ranged from 91-106 weeks and were biopsied when moribound, if possible. The histochemical stains were: H&E for general histology, Luna's for elastic fibers, Van Gieson's for collagen and Mowry's for proteoglycans.

[2] = test system: Female Albino hairless mice (Skh-hairless-1); test: Lifetime topical application of all-trans-retinoic acid to albino hairless mice (toxicity, clinical and histochemical skin observations); details: for clinical observations: condition of the skin: lifetime application, mice 91-106 weeks of age at photograph (Figure 1), versus vehicle and untreated controls
Description: as §1, §2, §3, §4

## CC1=C(/C=C/C(C)=C/C=C/C(C)=C/C(=O)O)C(C)(C)CCC1 [all-trans-retinoic acid]
[1]
  adverse or unusual effects at biopsy and necropsy: no indication that the mice suffered any adverse or unusual effects
  weights of mice: no difference in the weights
[2]; 0.025% (100 µl) topically, three times a week, remainder of life span, compared with cream vehicle and untreated groups
  mortality: no difference in mortality
[2]
  clinical observations: condition of the skin: thinner, pinker, more uniform skin than the controls
[2]; listed as All-trans-retinoic acid
  clinical observations: condition of the skin: thinner, pinker, more uniform skin than controls or untreated mice
[2]; lifetime treatment
  collagen in the repair zones (Van Gieson's stain): stained mainly as normal, mature collagen
  dermal inflammation (H&E): mild inflammatory infiltrate in the mid-dermis
  epidermal cell morphology (H&E): plump, cytologically normal and have abundant cytoplasm; also recorded: plump, cytologically normal and had an abundant cytoplasm
  granular layer of epidermis (H&E): about 4 cell layers
[2]; lifetime treatment (Figure 4)
  elastic fibers (Luna's stain): increased amount of new elastic fibers
[2]; lifetime treatment, compared with the other groups
  glycosamino-/proteoglycan deposits at the dermal-epidermal junction (Mowry's stain): Fewer deposits
[2]; lifetime treatment, hyperplastic, controls had the usual 2-4 compressed-looking cells
  epidermis (H&E), thickness: about 8 cell layers
[2]; lifetime treatment, no repair areas in controls
  new collagen (H&E; Luna's stain): Areas of new collagen were apparent
[2]; lifetime treatment, sample from a mouse 95 weeks of age
  granular layer of epidermis (H&E, Figure 4): approximately 4 cells
[2]; lifetime treatment, stated for all groups
  dermal glycosaminoglycans or proteoglycans (Mowry's stain): little or no increase
[2]; lifetime treatment, unlike in the controls
  blood vessels (H&E): abundance of new blood vessels; also recorded: readily seen
[2]; treatment over a lifetime
  toxic effects: no detectable toxic effects
